Assay [1] addresses T1, mu-opioid receptor (Homo sapiens, UniProt P35372). Nature of the assay: cell-based. The settings on record: read-out: BArr Activity.
Target sequence in this assay (P35372 whole entry, species assumed): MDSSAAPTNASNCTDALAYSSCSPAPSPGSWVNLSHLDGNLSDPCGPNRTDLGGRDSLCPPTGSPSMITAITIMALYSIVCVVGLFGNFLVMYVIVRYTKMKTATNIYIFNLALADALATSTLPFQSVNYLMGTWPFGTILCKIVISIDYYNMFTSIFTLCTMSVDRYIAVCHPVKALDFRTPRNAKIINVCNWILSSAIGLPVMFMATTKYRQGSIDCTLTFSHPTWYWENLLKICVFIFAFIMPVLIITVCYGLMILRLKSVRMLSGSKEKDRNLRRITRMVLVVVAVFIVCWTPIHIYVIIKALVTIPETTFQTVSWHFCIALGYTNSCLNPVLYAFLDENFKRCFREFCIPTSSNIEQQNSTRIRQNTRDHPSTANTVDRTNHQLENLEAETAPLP
Target sequence in this assay (P32121 whole entry partner, species assumed): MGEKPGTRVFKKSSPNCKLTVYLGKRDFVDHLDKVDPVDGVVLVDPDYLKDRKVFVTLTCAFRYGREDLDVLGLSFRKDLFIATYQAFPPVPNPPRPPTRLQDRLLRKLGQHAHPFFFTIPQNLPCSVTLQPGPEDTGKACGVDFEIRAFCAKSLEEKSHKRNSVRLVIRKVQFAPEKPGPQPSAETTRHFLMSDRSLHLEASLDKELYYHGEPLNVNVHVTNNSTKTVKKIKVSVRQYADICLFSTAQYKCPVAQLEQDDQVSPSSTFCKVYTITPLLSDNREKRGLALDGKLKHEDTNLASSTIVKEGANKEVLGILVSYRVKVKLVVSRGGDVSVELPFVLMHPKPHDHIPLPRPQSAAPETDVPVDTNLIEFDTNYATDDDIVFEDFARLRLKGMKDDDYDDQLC
The target in assay [2] is T1, mu-opioid receptor. In words: biochemical. The conditions noted are these: read-out: GTP Activity.
Target sequence in this assay (P35372 whole entry, species assumed): as the sequence (P35372 whole entry, species assumed) above
Where [3] appears, read: […], class symbol combines EC50 and efficacy.

Each structure is given as a SMILES string.

`CC[C@H]1C(=O)C(c2nc3ccccc3[nH]2)=C(N)N1c1cc(OC)cc(OC)c1` [compound 96]: the figures for the EC50 at mu-opioid receptor [1] (class symbols) and at mu-opioid receptor [2] (class symbols) were under 10 µM and under 0.1 µM, respectively.

Turning to `CCNC1=C(c2nc3ccccc3[nH]2)C(=O)C(CC)N1c1cc(OC)cc(OC)c1` (stereo not drawn) [compound 154], the EC50 on mu-opioid receptor [1] (class symbols) was under 10 µM; on mu-opioid receptor [2] (class symbols), 0.1 to 1 µM.

For `CNC1=C(c2nc3ccccc3[nH]2)C(=O)C2(CCCOC2)N1c1cc(OC)cc(OC)c1` (stereo not drawn) [compound 272], the results for the EC50 at mu-opioid receptor [1] (setting [3]) and on mu-opioid receptor [2] (setting [3]) were under 10 µM and under 0.1 µM, respectively.

As for `CNC1=C(c2nc3ccccc3[nH]2)C(=O)C2(CCCC2)N1c1cc(OC)cc(OC)c1` [compound 188], the figures for the EC50 at mu-opioid receptor [1] (class symbols) and on mu-opioid receptor [2] (class symbols) were under 10 µM and under 0.1 µM, respectively.

On to `CNC1=C(c2nc3ccccc3[nH]2)C(=O)C(C)(C)N1c1cc(OC)cc(OC)c1` [compound 79], for which the EC50 at mu-opioid receptor [1] (class symbols) was under 10 µM; at mu-opioid receptor [2] (class symbols), under 0.1 µM.

`CNC1=C(c2nc3ccccc3[nH]2)C(=O)C(CCO)N1c1cc(OC)cc(OC)c1` (stereo not drawn) [compound 215]: the EC50 at mu-opioid receptor [1] (setting [3]) was under 10 µM; on mu-opioid receptor [2] (setting [3]), under 0.1 µM.

On to `COc1cc(OC)cc(N2C(N)=C(c3nc4ccccc4[nH]3)C(=O)[C@@H]2C(C)C)c1` [compound 98], for which the EC50 at mu-opioid receptor [1] (class symbols) was under 10 µM; on mu-opioid receptor [2] (class symbols), under 0.1 µM.

Regarding `CCNC1=C(c2nc3ccccc3[nH]2)C(=O)[C@H](CC)N1c1cc(OC)cc(OC)c1` [compound 187], the EC50 at mu-opioid receptor [1] (class symbols) is under 10 µM; at mu-opioid receptor [2] (class symbols), under 0.1 µM.

Consider `CNC1=C(c2nc3ccccc3[nH]2)C(=O)[C@H](C)N1c1cc(OC)cc(OC)c1` [compound 137], for which the EC50 at mu-opioid receptor [1] (class symbols) is under 10 µM; at mu-opioid receptor [2] (class symbols) it was 0.1 to 1 µM.

`CCC1C(=O)C(c2nc3ccccc3[nH]2)=C(NC)N1c1cc(OC)cc(OC)c1` (stereo not drawn) [compound 153]: the figures for the EC50 on mu-opioid receptor [1] (class symbols) and on mu-opioid receptor [2] (class symbols) were under 10 µM and under 0.1 µM, respectively.

Take `COc1cc(OC)cc(N2C(N)=C(c3nc4ccccc4[nH]3)C(=O)[C@@H]2CCO)c1` [compound 242]: the EC50 at mu-opioid receptor [1] (setting [3]) is under 10 µM; at mu-opioid receptor [2] (setting [3]), under 0.1 µM.

With `COc1cc(OC)cc(N2C(N)=C(c3nc4ccccc4[nH]3)C(=O)C23CC3)c1` [compound 131], the EC50 at mu-opioid receptor [2] (class symbols) fell in the range of 1 to 10 µM.

Consider `COc1cc(OC)cc(N2C(N)=C(c3nc4ccccc4[nH]3)C(=O)C23CCN(C)C3)c1` (stereo not drawn) [compound 183], for which the EC50 at mu-opioid receptor [2] (class symbols) lay within 1 to 10 µM.

For the compound `COc1cc(OC)cc(N2C(N)=C(c3nc4ccccc4[nH]3)C(=O)C2CCN2CCOCC2)c1` (stereo not drawn) [compound 234], the EC50 on mu-opioid receptor [2] (setting [3]) is 0.1 to 1 µM.

For the compound `CNC1=C(c2nc3ccccc3[nH]2)C(=O)C(C)(CNC(=O)COC)N1c1cc(OC)cc(OC)c1` (stereo not drawn) [compound 283], the EC50 at mu-opioid receptor [2] (setting [3]) was under 0.1 µM.

`CNC1=C(c2nc3ccccc3[nH]2)C(=O)C(C)(O)N1c1cc(OC)cc(OC)c1` (stereo not drawn) [compound 114]: on mu-opioid receptor [2] (class symbols), the EC50 was in the range of 0.1 to 1 µM.

With `CNC1=C(c2nc3ccccc3[nH]2)C(=O)[C@@]2(CCCOC2)N1c1cc(OC)cc(OC)c1` [compound 306], on mu-opioid receptor [2] (setting [3]), the EC50 was 0.1 to 1 µM.

Take `COc1cc(OC)cc(N2C(N)=C(c3nc4ccccc4[nH]3)C(=O)C23CCCNC3)c1` (stereo not drawn) [compound 293]: on mu-opioid receptor [2] (setting [3]), the EC50 lay in the range of 1 to 10 µM.

For the compound `COc1cc(OC)cc(N2C(Nc3ccccc3)=C(c3nc4ccccc4[nH]3)C(=O)C2(C)C)c1` [compound 126], at mu-opioid receptor [2] (class symbols), the EC50 is 1 to 10 µM.

Take `COc1cc(OC)cc(N2C(N)=C(c3nc4ccccc4[nH]3)C(=O)[C@H]2CCO)c1` [compound 241]: at mu-opioid receptor [2] (setting [3]), the EC50 fell in the range of 0.1 to 1 µM.

For the compound `CNC1=C(c2nc3ccccc3[nH]2)C(=O)[C@](C)(CCOC)N1c1cc(OC)cc(OC)c1` [compound 299], the EC50 on mu-opioid receptor [2] (setting [3]) lay within 0.1 to 1 µM.

For the compound `COc1cc(OC)cc(N2CC(=O)C(c3nc4c(C)cccc4[nH]3)=C2N)c1` [compound 5], the EC50 on mu-opioid receptor [2] (class symbols) lay in the range of 1 to 10 µM.

As to `COc1cc(OC)cc(N2C(N)=C(c3nc4ccccc4[nH]3)C(=O)[C@]2(C)CCNC(C)=O)c1` [compound 301], the EC50 on mu-opioid receptor [2] (setting [3]) is 0.1 to 1 µM.

Consider `CC[C@@H]1C(=O)C(c2nc3ccccc3[nH]2)=C(N)N1c1cc(OC)cc(OC)c1` [compound 97], for which the EC50 on mu-opioid receptor [2] (class symbols) fell in the range of 1 to 10 µM.

Turning to `CC(C)(C)Oc1ccccc1N1CC(=O)C(c2nc3ccccc3[nH]2)=C1N` [compound 45], on mu-opioid receptor [2] (class symbols), the EC50 is 1 to 10 µM.
